Measurements reported in patent publication US20240199546A1, “INHIBITORS OF SOLUTE CARRIER FAMILY 6A MEMBER 19 (SLC6A19) AND METHODS OF USE THEREOF” (Maze Therapeutics, Inc., priority 2022, published 2024).

Target: T1, human SLC6A19 and TMEM27 (Homo sapiens, UniProt Q695T7)
T1 construct: expressed in transfected cells
T1 sequence (Q695T7 1-634): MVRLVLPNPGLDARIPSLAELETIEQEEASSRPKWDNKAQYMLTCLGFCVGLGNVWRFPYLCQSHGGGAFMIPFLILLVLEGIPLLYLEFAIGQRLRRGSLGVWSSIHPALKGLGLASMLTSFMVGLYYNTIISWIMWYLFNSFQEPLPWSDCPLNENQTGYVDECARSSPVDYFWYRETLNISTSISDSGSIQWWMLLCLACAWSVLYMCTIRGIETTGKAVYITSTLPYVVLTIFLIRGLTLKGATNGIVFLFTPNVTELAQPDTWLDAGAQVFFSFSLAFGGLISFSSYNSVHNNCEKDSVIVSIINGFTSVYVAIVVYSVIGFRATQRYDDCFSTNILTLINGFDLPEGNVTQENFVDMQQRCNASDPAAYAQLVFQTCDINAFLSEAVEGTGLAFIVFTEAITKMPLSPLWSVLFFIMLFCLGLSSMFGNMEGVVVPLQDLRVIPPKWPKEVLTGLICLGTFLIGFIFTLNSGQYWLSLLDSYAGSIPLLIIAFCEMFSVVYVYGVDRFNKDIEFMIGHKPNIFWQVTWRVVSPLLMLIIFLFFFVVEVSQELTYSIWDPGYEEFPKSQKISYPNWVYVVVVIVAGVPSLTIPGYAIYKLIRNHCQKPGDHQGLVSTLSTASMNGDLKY
T1 sequence (Q9HBJ8 15-222 partner): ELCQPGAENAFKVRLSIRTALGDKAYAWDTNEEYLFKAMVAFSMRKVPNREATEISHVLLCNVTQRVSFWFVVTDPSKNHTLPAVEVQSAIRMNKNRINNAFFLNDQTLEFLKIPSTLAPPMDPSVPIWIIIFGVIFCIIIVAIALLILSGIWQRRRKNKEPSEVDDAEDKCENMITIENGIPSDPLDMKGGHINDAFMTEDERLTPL
Experiment: Radiolabelled (3H) leucine uptake in CHO cells with doxycycline-inducible expression of human SLC6A19 and TMEM27 (Example B-1)
Assay type: cell-based
Settings: CHO cells with doxycycline-inducible expression of human SLC6A19 and TMEM27, read-out: SLC6A19_Radioligand Uptake Assay IC50
Procedure: The flasks were then incubated (humidified, 37° C. with 5% CO2) for 2 minutes. After incubation, 10 mL of pre-warmed cell culture media was added to each flask. The cell suspension was collected and centrifuged for 5 minutes at 200×g. The supernatant was aspirated and the pellet was resuspended in 5 mL pre-warmed cell culture media. The resuspended cells were counted using the Countess Cell Counting Chamber (Invitrogen) and the cell concentration of the suspension was readjusted to 1 million live cells/mL using pre-warmed cell culture media. […] Assay plates were then incubated (humidified, 37° C. with 5% CO2) for 18 hours. After incubation, the media was aspirated and the wells were washed 4 times with pre-warmed HBSS (Sigma-Aldrich, H8264-1L) using an Apricot S-Pipette S2 (Apricot Designs), such that 5 uL/well HBSS was remaining at the end of each wash. […] At this step, the final in-well DMSO concentration in the assay plate is 0.5%. All compounds were plated in a duplicate 8-point dilution series that consisted of 3-fold dilutions. The plates were incubated with compound (humidified, 37° C. with 5% CO2) for 1 hour. […] The plates were then incubated (humidified, 37° C. with 5% CO2) on a plate shaker at 200 rpm for 2 hours. After incubation, the plates were removed from the shaker and kept at room temperature for 15 minutes. Liquid scintillation analysis was performed using the MicroBeta2 Microplate Counter (Perkin Elmer). Activity (%) was derived by normalizing the average of positive control compound treated wells to 0% and the average of DMSO (negative control) wells to 100%. Collaborative Drug Discovery software was used for graphing data.

Row | Structure (SMILES) | IC50 [µM]
1 | CC1CCCN1C(=O)NCc1cc2cc(Cl)c(OCc3ccon3)cc2[nH]1 (stereo not drawn) [Compound 86, N-((5-chloro-6-(isoxazol-3-ylmethoxy)-1H-indol-2-yl)methyl)-2-methylpyrrolidine-1-carboxamide] | 0.49
2 | C[C@H](O)C(=O)NCc1cc2cc(F)c(OCc3cscn3)cc2[nH]1 [Compound 281, (S)-N-((5-fluoro-6-(thiazol-4-ylmethoxy)-1H-indol-2-yl)methyl)-2-hydroxypropanamide] | 2.28
3 | CO[C@H](C)C(=O)NCc1cc2cc(Cl)c(OCc3cscn3)cc2[nH]1 [Compound 292, (R)-N-((5-chloro-6-(thiazol-4-ylmethoxy)-1H-indol-2-yl)methyl)-2-methoxypropanamide] | 0.666
4 | Cc1cc(COc2cc3[nH]c(CNC(=O)CC4COC4)cc3cc2Cl)on1 [Compound 258, N-((5-chloro-6-((3-methylisoxazol-5-yl)methoxy)-1H-indol-2-yl)methyl)-2-(oxetan-3-yl)acetamide] | 2.67
5 | Cc1cc(C(C)Cc2ccc3cc(CNC(=O)C4(C)CC4)[nH]c3c2)no1 (stereo not drawn) [Compound 195, 1-methyl-N-((6-(2-(5-methylisoxazol-3-yl)propyl)-1H-indol-2-yl)methyl)cyclopropanecarboxamide] | 14.8
6 | CC(=O)NCc1cc2cc(Cl)c(OCc3cscn3)cc2[nH]1 [Compound 141, N-((5-chloro-6-(thiazol-4-ylmethoxy)-1H-indol-2-yl)methyl)acetamide] | 0.087
7 | CNC(=O)NCc1cc2cc(F)c(OCc3cc(C)no3)cc2[nH]1 [Compound 210, 1-((5-fluoro-6-((3-methylisoxazol-5-yl)methoxy)-1H-indol-2-yl)methyl)-3-methylurea] | 0.293
8 | O=C(NCc1cc2cc(F)c(OCc3cocn3)cc2[nH]1)N1CCC1 [Compound 358, N-((5-fluoro-6-(oxazol-4-ylmethoxy)-1H-indol-2-yl)methyl)azetidine-1-carboxamide] | 0.319
9 | O=C(CCO)NCc1cc2cc(Cl)c(OCc3cscn3)cc2[nH]1 [Compound 309, N-((5-chloro-6-(thiazol-4-ylmethoxy)-1H-indol-2-yl)methyl)-3-hydroxypropanamide] | 1.75
10 | Cc1cc(COc2cc3[nH]c(CNC(=O)[C@H]4C[C@H](O)C4)cc3cc2Cl)on1 [Compound 252, (1R,3R)-N-((5-chloro-6-((3-methylisoxazol-5-yl)methoxy)-1H-indol-2-yl)methyl)-3-hydroxycyclobutane-1-carboxamide] | 0.628
11 | O=C(NCc1cc2cc(F)c(OCc3cscn3)cc2[nH]1)N1CCC1 [Compound 92, N-((5-fluoro-6-(thiazol-4-ylmethoxy)-1H-indol-2-yl)methyl)azetidine-1-carboxamide] | 0.214
12 | O=C(NCc1cc2cc(Cl)c(OCc3cscn3)cc2[nH]1)N1CC(O)C1 [Compound 367, N-((5-chloro-6-(thiazol-4-ylmethoxy)-1H-indol-2-yl)methyl)-3-hydroxyazetidine-1-carboxamide] | 1.24
13 | Cc1ccnc(COc2cc3[nH]c(CNC(=O)C4(C)CC4)cc3cc2Cl)c1 [Compound 22, N-((5-chloro-6-((4-methylpyridin-2-yl)methoxy)-1H-indol-2-yl)methyl)-1-methylcyclopropane-1-carboxamide] | 2.24
14 | CC(=O)NCc1cc2cc(Cl)c(OCC3COC3)cc2[nH]1 [Compound 355, N-((5-chloro-6-(oxetan-3-ylmethoxy)-1H-indol-2-yl)methyl)acetamide] | 6.6
15 | Cc1cc(COc2cc3[nH]c(CNC(=O)N4CC(F)C4)cc3cc2Cl)on1 [Compound 372, N-((5-chloro-6-((3-methylisoxazol-5-yl)methoxy)-1H-indol-2-yl)methyl)-3-fluoroazetidine-1-carboxamide] | 0.253
16 | Cc1cc(COc2cc(F)c3cc(CNC(=O)C4(C)CC4)[nH]c3c2)no1 [Compound 340, N-((4-fluoro-6-((5-methylisoxazol-3-yl)methoxy)-1H-indol-2-yl)methyl)-1-methylcyclopropane-1-carboxamide] | 0.277

Next, values leading:

Row | IC50 [µM] | Structure (SMILES)
17 | 0.337 | O=C(NCc1cc2c(F)cc(OCc3cscn3)cc2[nH]1)N1CCC1 [Compound 422, N-((4-fluoro-6-(thiazol-4-ylmethoxy)-1H-indol-2-yl)methyl)azetidine-1-carboxamide]
18 | 0.146 | [2H]C([2H])([2H])C(=O)NCc1cc2cc(F)c(OCc3cscn3)cc2[nH]1 [Compound 566, N-((5-fluoro-6-(thiazol-4-ylmethoxy)-1H-indol-2-yl)methyl)acetamide-2,2,2-d3]
19 | 0.108 | Cc1cc(COc2cc3[nH]c(CNC(=O)[C@@H]4C[C@H]4F)cc3cc2Cl)on1 [Compound 537, (1S,2R)-N-((5-chloro-6-((3-methylisoxazol-5-yl)methoxy)-1H-indol-2-yl)methyl)-2-fluorocyclopropane-1-carboxamide]
20 | 0.12 | CC1(C(=O)NCc2cc3cc(F)c(CCc4cscn4)cc3[nH]2)CC1 [Compound 594, N-((5-fluoro-6-(2-(thiazol-4-yl)ethyl)-1H-indol-2-yl)methyl)-1-methylcyclopropane-1-carboxamide]
21 | 0.412 | Cc1cc(COc2cc3[nH]c(CNC(=O)NCC(F)F)cc3cc2Cl)on1 [Compound 374, 1-((5-chloro-6-((3-methylisoxazol-5-yl)methoxy)-1H-indol-2-yl)methyl)-3-(2,2-difluoroethyl)urea]
22 | 0.0822 | Cc1cc(COc2cc3[nH]c(CNC(=O)C(F)F)cc3cc2Cl)on1 [Compound 563, N-((5-chloro-6-((3-methylisoxazol-5-yl)methoxy)-1H-indol-2-yl)methyl)-2,2-difluoroacetamide]
23 | 1.35 | CC(=O)NCc1cc2cc(Cl)c(OC[C@H]3CCOC3)cc2[nH]1 [Compound 464, (S)-N-((5-chloro-6-((tetrahydrofuran-3-yl)methoxy)-1H-indol-2-yl)methyl)acetamide]
24 | 0.676 | CC1(C(=O)NCc2cc3cc(Cl)c(OCCC4CCC4)cc3[nH]2)CC1 [Compound 394, N-((5-chloro-6-(2-cyclobutylethoxy)-1H-indol-2-yl)methyl)-1-methylcyclopropane-1-carboxamide]
25 | 0.181 | CC1(C(=O)NCc2cc3cc(Cl)c(OCC4CC4)cc3[nH]2)CC1 [Compound 633, N-((5-chloro-6-(cyclopropylmethoxy)-1H-indol-2-yl)methyl)-1-methylcyclopropane-1-carboxamide]
26 | 0.765 | CN(Cc1cn[nH]c1)C(=O)NCc1cc2cc(Cl)c(OCc3cscn3)cc2[nH]1 [Compound 626, 1-((1H-pyrazol-4-yl)methyl)-3-((5-chloro-6-(thiazol-4-ylmethoxy)-1H-indol-2-yl)methyl)-1-methylurea]
27 | 0.111 | Cc1cc(COc2cc3[nH]c(CNC(=O)C(C)(F)F)cc3cc2Cl)on1 [Compound 440, N-((5-chloro-6-((3-methylisoxazol-5-yl)methoxy)-1H-indol-2-yl)methyl)-2,2-difluoropropanamide]
28 | 0.215 | O=C(NCc1cc2cc(Cl)c(OCc3cocn3)cc2[nH]1)C1CC1 [Compound 429, N-((5-chloro-6-(oxazol-4-ylmethoxy)-1H-indol-2-yl)methyl)cyclopropanecarboxamide]
29 | 0.644 | CC1(C(=O)NCc2cc3cc(Cl)c(OCC4COCCO4)cc3[nH]2)CC1 (racemic) [Compound 396, (S)-N-((6-((1,4-dioxan-2-yl)methoxy)-5-chloro-1H-indol-2-yl)methyl)-1-methylcyclopropane-1-carboxamide and (R)-N-((6-((1,4-dioxan-2-yl)methoxy)-5-chloro-1H-indol-2-yl)methyl)-1-methylcyclopropane-1-carboxamide]
30 | 4.76 | CC1(C(=O)NCc2cc3cc(Cl)c(CCn4ccnc4)cc3[nH]2)CC1 [Compound 589, N-((6-(2-(1H-imidazol-1-yl)ethyl)-5-chloro-1H-indol-2-yl)methyl)-1-methylcyclopropane-1-carboxamide]
